How the values were obtained:
rat formalin pain model = test: Rat formalin model of pain (inhibition of formalin-induced flinching); format: in vivo; conditions: for SNRI Dose Response ED50 (Confidence Interval): phase 2A, SNRI IP alone or plus 1 mg/kg morphine SC, 95% CI
[1] = Pharmacokinetic studies: plasma concentrations alone or in combination; conditions: rat; for Plasma concentrations of SNRI alone versus in combination with morphine: compound 1 3 mg/kg, duloxetine 10 mg/kg or atomoxetine 10 mg/kg IP, morphine 3 mg/kg SC or vehicle SC
rat SERT = target: T1, rat SERT (Rattus norvegicus, UniProt P31652); test: Ex vivo SERT transporter occupancy ([3H]-citalopram association); format: in vivo; conditions: 1.25 h post dose, ± Standard Error; for receptor occupancy at 3 mg/kg: 3 mg/kg IP; for receptor occupancy at 10 mg/kg: 10 mg/kg IP
T1 construct: from tissue; host or cells: rat cortex or lumbar spinal cord homogenate from dosed animals
T1 sequence (P31652 whole entry): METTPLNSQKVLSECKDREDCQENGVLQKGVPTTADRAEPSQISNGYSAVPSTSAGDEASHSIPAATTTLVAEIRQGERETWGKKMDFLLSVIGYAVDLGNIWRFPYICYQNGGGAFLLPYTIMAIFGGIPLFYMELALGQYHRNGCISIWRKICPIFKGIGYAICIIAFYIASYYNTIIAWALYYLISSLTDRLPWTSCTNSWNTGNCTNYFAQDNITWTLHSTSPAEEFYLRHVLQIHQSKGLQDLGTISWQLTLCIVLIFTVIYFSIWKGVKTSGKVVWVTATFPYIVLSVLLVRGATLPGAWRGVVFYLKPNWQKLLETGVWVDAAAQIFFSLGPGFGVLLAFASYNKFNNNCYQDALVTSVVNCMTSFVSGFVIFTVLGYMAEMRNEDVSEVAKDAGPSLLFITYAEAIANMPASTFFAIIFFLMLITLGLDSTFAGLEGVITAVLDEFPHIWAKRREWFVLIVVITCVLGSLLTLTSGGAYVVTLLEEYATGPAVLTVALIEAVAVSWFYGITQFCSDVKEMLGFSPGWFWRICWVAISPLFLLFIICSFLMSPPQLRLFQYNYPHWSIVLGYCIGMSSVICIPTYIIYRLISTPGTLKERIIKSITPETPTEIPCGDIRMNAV
Description: (§1) To monitor SERT and NET transporter occupancy, an ex vivo occupancy assay was used in which the initial rate of association of a SERT- or NET-selective radioligand, respectively, to the tissue homogenates was monitored. The initial rate of association of radioligand is directly proportional to the level of free (unoccupied) transporter.
Rats were euthanized 1.25 hours post compound administration by decapitation. Following decapitation, the brain was removed and placed on to a clean metal block, on ice. A parasagittal cut was made through the entire brain, around 4 mm lateral to the midline. The lateral cortex pieces were discarded. A midsagittal cut was made through the entire length of the brain. The block of brain corresponding to each hemisphere was then placed on to the respective lateral cut surface, such that the midsagittal surface was uppermost. A single cut was made parallel to, and about 1 mm dorsal to, the corpus callosum to remove a cortex piece, which was frozen on dry ice prior to storage at −80° C. The spinal cord was harvested by hydraulic extrusion with PBS. An 18 gauge needle was inserted into the spinal column near the iliac crest and the buffer injected into the spinal column with the resultant extrusion of the spinal cord, intact. The lumbar spinal cord (approximately 1-1.5 cm in length) was rapidly dissected and frozen on dry ice prior to storage at −80° C.
The frozen tissue pieces were weighed and kept on dry ice prior to homogenization. […]
(§2) Total and non-specific binding was determined at a single concentration of radioligand (in parentheses): [^3H]-citalopram (3 nM) and [^3H]-nisoxetine (5 nM) at SERT and NET, respectively. […] Filter plates were washed six times with wash buffer (ice-cold 50 mM Tris-HCl, 0.9% NaCl, at 4° C.) to remove unbound radioactivity. Plates were dried, 35-45 μL Microscint-20 liquid scintillation fluid (Packard BioScience Co., Meriden, Conn.) was added to each well, and plates were counted in a Packard Topcount liquid scintillation counter (Packard BioScience Co., Meriden, Conn.).
Specific binding was calculated using total (in the absence of test compound) and non-specific (determined as described above) binding from the same plate as follows: specific binding=value−non-specific binding. Data then were analyzed by linear regression analysis with the GraphPad Prism Software package (GraphPad Software, Inc., San Diego, Calif.). The initial rates of association of [^3H]-citalopram or [^3H]-nisoxetine, equal to the slope of the straight line, were determined by fitting data points, specific binding (cpm) versus time (min). The average of the initial rates of [^3H]-citalopram or [^3H]-nisoxetine association from vehicle-dosed animals was calculated. […]

hSERT = hSERT (Homo sapiens, UniProt P31645); test: 3H-5-HT neurotransmitter uptake assay in HEK-293 cells expressing hSERT
Chain of hSERT (P31645 whole entry): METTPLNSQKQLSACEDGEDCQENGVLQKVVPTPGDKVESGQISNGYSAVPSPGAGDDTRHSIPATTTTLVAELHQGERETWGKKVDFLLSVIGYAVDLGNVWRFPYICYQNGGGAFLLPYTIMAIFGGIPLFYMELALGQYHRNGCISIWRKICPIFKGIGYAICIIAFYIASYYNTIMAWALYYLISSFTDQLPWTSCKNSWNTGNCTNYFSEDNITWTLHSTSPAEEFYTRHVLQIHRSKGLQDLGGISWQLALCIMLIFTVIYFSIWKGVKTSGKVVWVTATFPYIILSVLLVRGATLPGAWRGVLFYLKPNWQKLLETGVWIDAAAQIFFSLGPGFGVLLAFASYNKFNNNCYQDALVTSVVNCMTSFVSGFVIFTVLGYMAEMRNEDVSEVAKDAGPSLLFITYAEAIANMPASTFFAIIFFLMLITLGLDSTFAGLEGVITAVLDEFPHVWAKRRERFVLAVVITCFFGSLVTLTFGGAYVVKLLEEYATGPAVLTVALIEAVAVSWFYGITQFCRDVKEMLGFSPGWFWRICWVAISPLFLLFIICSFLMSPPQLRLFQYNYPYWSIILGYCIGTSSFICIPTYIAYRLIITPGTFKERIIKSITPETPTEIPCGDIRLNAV
Description: (§3) Neurotransmitter uptake assays were used to measure inhibition of ^3H-serotonin (^3H-5-HT) and ^3H-norepinephrine (^3H-NE) uptake into cells expressing the respective human recombinant transporter (hSERT or hNET) and into rat brain synaptosomal preparations in order to determine the pIC50 values of test compounds at the human and rat monoamine transporters, respectively.
HEK-293 derived cell lines stably-transfected with hSERT or, hNET, respectively, were grown in Dulbecco's modified Eagles Medium (DMEM) supplemented with 10% dialyzed FBS (for hSERT) or FBS (for hNET), 100 μg/ml penicillin, 100 μg/ml streptomycin, 2 mM L-glutamine and 250 μg/ml of the aminoglycoside antibiotic G418 in a 5% CO2 humidified incubator at 37° C. […]
(§4) Following a 10 minute incubation for cells (6 minute incubation for rat synaptosomes) at 37° C. with radioligand, the reactions were terminated by rapid filtration over a 96-well UniFilter GF/B plate, pretreated with 1% BSA, and washed 6 times with 650 μl wash buffer (ice cold PBS). Plates were dried, 35-45 μl of MicroScint™-20 (Perkin Elmer) added and incorporated radioactivity quantitated via liquid scintillation counting. Inhibition curves were analyzed using the GraphPad Prism Software package (GraphPad Software, Inc., San Diego, Calif.).

SERT = SERT (Rattus norvegicus, UniProt P31652); test: 3H-5-HT uptake assay in rat brain synaptosomal preparations
Chain of SERT (P31652 whole entry): as the sequence (P31652 whole entry) above
Excerpt: as §3
Rats were euthanized by decapitation. Rat freshly dissected cortical tissue pieces were suspended in ice-cold Sucrose Buffer at a ratio of 100 mg wet weight of tissue per 1 mL of buffer. The tissues were homogenized using a pre-chilled glass dounce homogenizer for 20 strokes. The homogenate was centrifuged at 1,000×g (10 min at 4° C.). […] Synaptosomes were resuspended in Sucrose Buffer and the protein concentration was determined by the method of Bradford (Bradford (1976) Analytical Biochemistry 72:24854) and used immediately following preparation. […]
Following a 10 minute incubation for cells (6 minute incubation for rat synaptosomes) at 37° C. with radioligand, the reactions were terminated by rapid filtration over a 96-well UniFilter GF/B plate, pretreated with 1% BSA, and washed 6 times with 650 μl wash buffer (ice cold PBS). Plates were dried, 35-45 μl of MicroScint™-20 (Perkin Elmer) added and incorporated radioactivity quantitated via liquid scintillation counting. […]

NET [2] = target: NET (Rattus norvegicus, UniProt Q63380); test: 3H-NE uptake assay in rat brain synaptosomal preparations; conditions: Rat brain synaptosomes, 3H-NE uptake
Chain of NET (Rattus norvegicus, UniProt Q63380) (Q63380 1-617): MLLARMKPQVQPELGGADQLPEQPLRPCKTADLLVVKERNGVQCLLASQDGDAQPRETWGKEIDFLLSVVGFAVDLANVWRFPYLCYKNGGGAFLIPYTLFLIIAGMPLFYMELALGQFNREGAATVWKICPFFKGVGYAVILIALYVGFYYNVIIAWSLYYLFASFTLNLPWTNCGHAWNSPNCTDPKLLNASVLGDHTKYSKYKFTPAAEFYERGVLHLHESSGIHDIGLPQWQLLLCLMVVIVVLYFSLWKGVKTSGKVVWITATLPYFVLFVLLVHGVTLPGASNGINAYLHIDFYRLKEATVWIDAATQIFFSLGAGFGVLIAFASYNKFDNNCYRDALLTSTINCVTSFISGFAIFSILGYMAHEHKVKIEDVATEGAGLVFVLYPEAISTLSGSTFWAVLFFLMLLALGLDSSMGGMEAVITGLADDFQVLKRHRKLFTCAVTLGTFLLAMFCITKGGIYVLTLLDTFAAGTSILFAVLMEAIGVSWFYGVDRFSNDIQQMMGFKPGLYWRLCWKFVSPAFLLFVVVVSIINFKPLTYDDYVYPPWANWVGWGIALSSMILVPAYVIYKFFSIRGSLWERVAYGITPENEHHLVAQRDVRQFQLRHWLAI
Excerpt: as §3
(§5) Rats were euthanized by decapitation. Rat freshly dissected cortical tissue pieces were suspended in ice-cold Sucrose Buffer at a ratio of 100 mg wet weight of tissue per 1 mL of buffer. The tissues were homogenized using a pre-chilled glass dounce homogenizer for 20 strokes. The homogenate was centrifuged at 1,000×g (10 min at 4° C.). The pellet was discarded and the resulting supernatant was centrifuged at 10,000×g (20 min at 4° C.) to obtain the crude synaptosomal pellet. Synaptosomes were resuspended in Sucrose Buffer and the protein concentration was determined by the method of Bradford (Bradford (1976) Analytical Biochemistry 72:24854) and used immediately following preparation.
(§6) Neurotransmitter uptake assays were performed in a 96-well assay plate in a total volume of 400 μg containing 1.5×10^4 and 2.5×10^4 cells, for SERT and NET, respectively or 10 μg cortical synaptosomal protein in assay buffer (Krebs-Ringer bicarbonate buffer containing HEPES (10 mM), CaCl2 (2.2 mM), ascorbic acid (200 μM) and pargyline (200 μM), pH 7.4). […]
as §4

NET [3] = test: as above
Excerpt: as §3, §5, §6, §4

hNET = hNET (Homo sapiens, UniProt P23975); test: 3H-NE neurotransmitter uptake assay in HEK-293 cells expressing hNET
Chain of hNET (P23975 whole entry): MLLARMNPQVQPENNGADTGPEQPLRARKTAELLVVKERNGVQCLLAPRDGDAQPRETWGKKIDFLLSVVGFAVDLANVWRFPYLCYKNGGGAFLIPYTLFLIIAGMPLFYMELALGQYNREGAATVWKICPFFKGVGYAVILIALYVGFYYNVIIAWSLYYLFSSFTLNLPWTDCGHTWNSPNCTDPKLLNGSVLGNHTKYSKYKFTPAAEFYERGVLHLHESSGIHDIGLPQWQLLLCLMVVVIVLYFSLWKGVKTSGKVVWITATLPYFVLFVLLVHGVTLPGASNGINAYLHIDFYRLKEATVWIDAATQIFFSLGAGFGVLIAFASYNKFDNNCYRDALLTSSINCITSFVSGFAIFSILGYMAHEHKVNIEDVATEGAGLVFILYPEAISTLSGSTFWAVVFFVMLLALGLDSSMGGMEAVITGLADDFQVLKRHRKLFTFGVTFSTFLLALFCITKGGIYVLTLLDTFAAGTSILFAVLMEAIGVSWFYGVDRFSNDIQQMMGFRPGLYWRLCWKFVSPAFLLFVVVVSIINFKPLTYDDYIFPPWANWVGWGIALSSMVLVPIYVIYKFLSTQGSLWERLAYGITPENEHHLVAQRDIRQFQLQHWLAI
Description: as §3
HEK-293 derived cell lines stably-transfected with hSERT or, hNET, respectively, were grown in Dulbecco's modified Eagles Medium (DMEM) supplemented with 10% dialyzed FBS (for hSERT) or FBS (for hNET), 100 μg/ml penicillin, 100 μg/ml streptomycin, 2 mM L-glutamine and 250 μg/ml of the aminoglycoside antibiotic G418 in a 5% CO2 humidified incubator at 37° C. When cultures reached 50-80% confluence, the cells were washed thoroughly in PBS (without Ca^2+ and Mg^2+) and lifted with 5 mM EDTA in PBS. Cells were harvested by centrifugation at 1100 rpm for 5 minutes, the supernatant was discarded, and the cell pellet resuspended, by gentle trituration, in room temperature Krebs-Ringer bicarbonate buffer containing HEPES (10 mM), CaCl2 (2.2 mM), ascorbic acid (200 μM) and pargyline (200 μM), pH 7.4. The final concentration of cells in the cell suspension was 7.5×10^4 cells/ml for hSERT and 12.5×10^4 cells/ml for hNET. […]
as §4

rat NET = target: T2, rat NET (Rattus norvegicus, UniProt Q63380); test: Ex vivo NET transporter occupancy ([3H]-nisoxetine association); format: in vivo; conditions: lumbar spinal cord, 1.25 h post dose, ± Standard Error
T2 construct: from tissue; host or cells: rat cortex or lumbar spinal cord homogenate from dosed animals
T2 sequence (Q63380 1-617): as the sequence (Q63380 1-617) above
Excerpt: as §1
The spinal cord was harvested by hydraulic extrusion with PBS. An 18 gauge needle was inserted into the spinal column near the iliac crest and the buffer injected into the spinal column with the resultant extrusion of the spinal cord, intact. […]
as §2
Specific binding was calculated using total (in the absence of test compound) and non-specific (determined as described above) binding from the same plate as follows: specific binding=value−non-specific binding. […]

**Q.** Which “SNRI Dose Response ED50 (Confidence Interval)” value (rat formalin pain model; rat formalin model) does the source give for `CNCC[C@@H](Oc1ccccc1C)c1ccccc1` [Atomoxetine, atomoxetine, reference compound] here?
**A.** 24.4 (14.5-41.1) (n = 6-12) mg/kg

**Q.** What about the “Plasma concentrations of SNRI alone versus in combination with morphine” value [1] of the same compound?
**A.** equivalent

**Q.** And the receptor occupancy at 3 mg/kg (rat SERT; cortex)?
**A.** 35 ± 9%

**Q.** And the receptor occupancy at 10 mg/kg (rat SERT; cortex)?
**A.** 64 ± 5%

**Q.** What does the source list for `Fc1cc(F)c(OCc2ccccc2C2CCNCC2)c(F)c1` [Compound 1, 4-[2-(2,4,6-trifluoro-phenoxymethyl)-phenyl]-piperidine]?
**A.** IC50 (hSERT): 10 nM; IC50 (SERT): 12.6 nM; inhibition at 10 mg/kg (rat formalin pain model; Rattus norvegicus, single administration of 10 mg/kg compound 1 IP, mean±SEM, read-out: inhibition of flinching behavior): 20 ± 7%; pain behavior during phase 1 (rat formalin pain model; first 10 minutes post formalin injection (acute pain processing)): Decreases in pain behavior were also observed; SNRI Dose Response ED50 (Confidence Interval) (rat formalin pain model; rat formalin model): 20.0 (14.0-28.4) mg/kg; interaction with morphine (shift of morphine dose response curve) (rat formalin pain model; rat formalin model, 3 mg/kg IP compound 1 plus morphine SC, 3 mg/kg): failed to significantly shift the morphine dose response curve; interaction with oxycodone (ED50 shift, isobolographic analysis) (rat formalin pain model; rat formalin model, 10 mg/kg IP compound 1 plus oxycodone SC): synergistic interaction; interaction with morphine (ED50 shift, isobolographic analysis) (rat formalin pain model; rat formalin model, compound 1 or atomoxetine 10 mg/kg IP, duloxetine 3, 5 or 10 mg/kg IP, morphine SC): synergistic interaction; NET pIC50 (NET [2]): 8.9; NET selectivity (NET [3]; Rat brain synaptosomes, 10**(NET pIC50 − SERT pIC50)): 10; selectivity for NET (ratio of SERT to NET IC50 values) (NET [3]; rat brain synaptosomal preparations): about 10 fold; IC50 (hNET): 2.51 nM; NET selectivity (hNET): 4; selectivity for NET (ratio of SERT to NET IC50 values) (hNET; human recombinant cell-based assay): about 4 fold; Plasma concentrations of SNRI alone versus in combination with morphine [1]: equivalent; receptor occupancy at 3 mg/kg (rat SERT; lumbar spinal cord): 23 ± 14%; receptor occupancy at 10 mg/kg (rat SERT; lumbar spinal cord): 46 ± 20%; receptor occupancy at 3 mg/kg (rat NET; 3 mg/kg IP): 77 ± 15%; receptor occupancy at 10 mg/kg (rat NET; 10 mg/kg IP): 81 ± 6%

**Q.** Which results are given for `CNCC[C@H](Oc1cccc2ccccc12)c1cccs1` [Duloxetine, duloxetine, reference compound]?
**A.** morphine sparing effect (rat formalin pain model; duloxetine 5 mg/kg IP co-administered with ondansetron 3 mg/kg IP, with morphine 1 mg/kg SC): a morphine sparing effect was observed; inhibition of flinching behavior (in words) (rat formalin pain model; single administration of 10 mg/kg duloxetine): significant inhibition of flinching behavior

**Q.** Which inhibition at 1 mg/kg (rat formalin pain model; Rattus norvegicus, sc, read-out: inhibition of flinching behavior) does the source give for `CN1CC[C@]23c4c5ccc(O)c4O[C@H]2[C@@H](O)C=C[C@H]3[C@H]1C5` [Morphine, morphine, reference compound] here?
**A.** 13 ± 11%

**Q.** Which “Plasma concentrations alone versus combination of compound 1 and oxycodone” value ([1]; compound 1 10 mg/kg IP, oxycodone 3 mg/kg SC) does the source give for `COc1ccc2c3c1O[C@H]1C(=O)CC[C@@]4(O)[C@@H](C2)N(C)CC[C@]314` [Oxycodone, oxycodone] here?
**A.** equivalent

From patent US20110263631A1, “COMBINATION OF A SEROTONIN AND NOREPINEPHRINE REUPTAKE INHIBITOR AND AN OPIOID AGONIST FOR THE TREATMENT OF PAIN” (priority 2010, published 2011)
